Data published in ChEMBL document CHEMBL1158923, “Cytotoxic metabolites from the sponge Ianthella basta collected in Papua New Guinea” (1990).
Values after ≈ are worked out from the molar mass of the structure shown.

These compounds were tested on L1210 (assay: Cytotoxicity against mouse L1210 cells). Conditions: read-out: ED50 (the source's name).
Assay type: functional
`CO/N=C1\Cc2cc(Br)c(OC)c(c2)Oc2c(Br)cc(cc2Br)C/C(=N\OC)C(=O)NCCc2cc(Br)c(OC)c(c2)Oc2ccc(cc2Br)/C=C/NC1=O` [TETRAMETHYLBASTADIN 4] was tested, and the EC50 was 5 µg/mL (≈ 4.66 µM).
`O=C1NCCc2cc(Br)c(O)c(c2)Oc2c(Br)cc(cc2Br)C(O)CNC(=O)/C(=N/O)Cc2cc(Br)c(O)c(c2)Oc2ccc(cc2Br)C/C1=N\O` (stereo unspecified) [BASTADIN 9] showed an EC50 of 5 µg/mL (≈ 4.83 µM).
For `CO/N=C1\Cc2ccc(c(Br)c2)Oc2cc(cc(Br)c2OC)C/C(=N\OC)C(=O)NCC(O)c2cc(Br)c(c(Br)c2)Oc2cc(cc(Br)c2OC)CCNC1=O` (stereo unspecified) [TETRAMETHYLBASTADIN 9], the EC50 was 5 µg/mL (≈ 4.58 µM).
For `O=C1NCCc2cc(Br)c(O)c(c2)Oc2ccc(cc2Br)[C@H](O)CNC(=O)/C(=N/O)Cc2cc(Br)c(O)c(c2)Oc2c(Br)cc(cc2Br)C/C1=N\O` [BASTADIN 8], the EC50 was 5 µg/mL (≈ 4.83 µM).
Compound `CO/N=C1/Cc2cc(Br)c(c(Br)c2)Oc2cc(cc(Br)c2OC)C/C(=N\OC)C(=O)NCC(O)c2ccc(c(Br)c2)Oc2cc(cc(Br)c2OC)CCNC1=O` (stereo unspecified) [TETRAMETHYLBASTADIN 8] has an EC50 of 5 µg/mL (≈ 4.58 µM).
`O=C1N/C=C/c2ccc(c(Br)c2)Oc2cc(cc(Br)c2O)CCNC(=O)/C(=N/O)Cc2cc(Br)c(c(Br)c2)Oc2cc(cc(Br)c2O)C/C1=N\O` [BASTADIN 4] gave an EC50 of 5 µg/mL (≈ 4.92 µM).
